Test results reported in US7232837B2, “Stereoisomers with high affinity for adrenergic receptors” (McNeil-PPC, Inc., priority 1999, dated 2007).
pKd: −log10 of the molar value. Structures can show the parent of a compound that is named as a salt. Where two headings read alike, the source gives them in different places.

Tests used:
Swiss-Webster mice [1] = experiment: Locomotor stimulant and depressant effects in mice; conditions: i.p.; for Depression Efficacy: ratio of the maximal depressant effect to the maximum possible effect (zero locomotor activity) / Stimulation Efficacy: ratio of the maximal stimulant effect of the test compound to the maximal effect of (+)-amphetamine: locomotor activity
Procedure: Male Swiss-Webster mice (HSD ND4, Harlan Sprague Dawley, Houston, Tex.) aged 2–3 months were used in these studies. Each dose group consisted of 8 mice. The mice were housed 2 to 4 per cage in 30.4×22.9×15.2 cm clear polycarbonate cages with food and water available ad libitum for at least one week prior to locomotor activity testing. The colony was maintained at 23±1° C., on a normal light-dark cycle beginning at 0700 hr. All testing took place during the light portion of the light-dark cycle.
Horizontal (forward movement) locomotor activity was measured using a standardized, optical activity monitoring system [Model KXYZCM (16), Omnitech Electronics, Columbus, Ohio]. Activity was monitored in forty 40.5×40.5×30.5 cm clear acrylic chambers that where housed in sets of two within larger sound-attenuating chambers. A panel of 16 infrared beams and corresponding photodetectors were spaced 2 cm apart along the sides and 2.4 cm above the floor of each activity chamber. A 7.5-W incandescent light above each chamber provided dim illumination via a rheostat set to 20% of full scale. Fans provided an 80-dB ambient noise level within the chamber.
Triprolidine HCl was obtained from Research Biochemicals International, (Natick, Mass.).
Locomotor stimulant effects. […] (+)-Amphetamine was used as a positive control. The total horizontal distance traversed (cm) was recorded at 10 minute intervals for a 2-hour session. Separate groups of 8 mice were assigned to each dose or saline group, and dose-effect testing continued for each compound until maximal stimulant or depressant effects could be estimated. A separate control group was tested along with each compound.
Using TableCurve 2D v2.03 (Jandel Scientific), the mean average total distance traversed (cm/10 min) for that period was fit to a 3-parameter logistic peak function of log10 dose (with the constant set to the mean of the saline group), and the maximum effect estimated from the resulting curve. The […] (dose producing ½ maximal stimulant activity) was estimated from a linear regression against log10 dose of the ascending portion of the dose-effect curve. The stimulant efficacy was the peak effect of the compound (cm/10 min) as estimated from the logistic peak function, minus the mean control distance traveled (cm/10 min), and was expressed for each stimulant compound as a ratio to the stimulant efficacy determined for (+)-amphetamine.
The mean average total distance traversed (cm/10 min) for that period were fit to a linear function of log10 dose of the descending portion of the dose-effect curve. […] Efficacy was the ratio of maximal depressant effect to maximum possible depression for each compound (mean average total distance of the control group minus the lowest mean total distance, expressed as a ratio to the control group total distance).
(§1) Statistical analysis. Time course data for each compound were considered in 2-way analyses of variance with dose as a between-group and time as a within-group factor. The dose-effect data were considered in 1-way analyses of variance, and planned individual comparisons were conduced between each dose and the saline control group. Interaction studies were considered in 2-way analyses of variance, with Pretreatment and Test dose as the factors.

Swiss-Webster mice [2] = experiment: H1 receptor antagonist (triprolidine) interaction study, locomotor activity in mice; conditions: for effect of triprolidine pretreatment on stimulant or depressant effects: mice pretreated with triprolidine 20 min before the test compound
Procedure: H1 receptor antagonist interaction studies. […] The mice were immediately placed in the activity testing chamber for a 2-h session. Doses of the test compound were selected from the ascending or descending time of the dose-effect curve determined from the compound-alone studies. Eight mice were tested for each triprolidine/test compound combination.
as §1

β2 adrenergic receptors = molecular target: T1, β2 adrenergic receptors (Canis lupus familiaris, UniProt P54833); experiment: Beta-2 binding, 125iodocyanopindolol (ICYP), canine lung membranes; parameters: species or system canine (mongrel dogs)
T1 construct: Canine lung membranes (10 μg protein/100 ul) were incubated with ^125ICYP; from tissue; host or cells: mongrel dog lung membranes
T1 sequence (P54833 whole entry): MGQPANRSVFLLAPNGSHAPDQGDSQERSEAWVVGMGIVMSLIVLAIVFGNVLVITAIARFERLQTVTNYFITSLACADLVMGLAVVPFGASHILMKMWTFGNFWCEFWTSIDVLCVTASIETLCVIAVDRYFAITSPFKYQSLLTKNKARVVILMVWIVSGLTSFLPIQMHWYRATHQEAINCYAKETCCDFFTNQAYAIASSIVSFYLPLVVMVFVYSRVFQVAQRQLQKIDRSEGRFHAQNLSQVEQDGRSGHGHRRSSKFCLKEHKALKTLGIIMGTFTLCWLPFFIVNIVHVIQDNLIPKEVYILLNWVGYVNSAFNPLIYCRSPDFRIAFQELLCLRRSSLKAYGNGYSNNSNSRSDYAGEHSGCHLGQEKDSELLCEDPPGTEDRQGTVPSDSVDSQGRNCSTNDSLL
Procedure: PULMONARY ALPHA-1 AND BETA-2 RECEPTORS: The lungs of mongrel dogs were separated from cartilaginous airways and major blood vessels, weighed, chopped and placed into 10 volumes of ice-cold buffered sucrose (50 mM Tris-HCl pH 7.4, 1 mM EGTA, 0.32M Sucrose). The tissue was then homogenized in a Polytron tissue homogenizer. The homogenate was filtered through two layers of cheesecloth, and the filtrate was dounced three times using a Con-Turque Potter homogenizer. […] The supernatant was recentrifuged at 30,000×g for 30 min at 4° C. and the resulting pellet was washed and resuspended in 10 volumes of Tris buffer (50 mM Tris HCl, pH 7.4, 1 mM EGTA) and incubated at 37° C. for 30 min in a shaking water bath. The suspension was centrifuged at 4° C. at 30,000×g for 30 min and the resulting pellet washed in 10 volumes of Tris buffer. […] Protein concentration was then determined by the Lowry method and the final suspension was adjusted to 10 mg of protein/ml, aliquoted and stored at […].
Particulates were also prepared for β2 receptors using the identical procedure except the final protein concentration was adjusted to 0.1 mg/ml.
(§2) ALPHA-2 BINDING ^125IODOCLONIDINE. […] Nonspecific binding was determined in separate incubations in the presence of 10 μM phentolamine. The final concentration of p-iodoclonidine was 44–45 pM in competition studies and between 50 pM and 10 nM in saturation experiments. Bound and free p-^125iodoclonidine were separated and the bound quantified as described above for the ICYP assays. […] BETA-2 BINDING, ^125IODOCYANOPINDOLOL (^125ICYP). […] Nonspecific binding was determined in separate incubations in the presence of 2 μM d,l-propranolol. Each experimental point was determined in triplicate. […] Incubations were terminated as described above for the α1 assays. Filters were placed into polyethylene tubes and the bound ligand was determined by gamma spectrometry (Sano et al., 1993).
(§3) All data were analyzed with the aid of microcomputer nonlinear curve fitting programs (PRISM 2.0, Graphpad Software, San Diego Calif.).
(§4) The receptors resident in each of the three membrane preparations were evaluated by standard saturation analysis following the addition of increasing concentrations of the appropriate radioligand. […] The radio ligand added for subsequent α2-displacement assays was adjusted to evaluate only the high affinity receptor. Contributions from p-iodoclonidine binding to imidazoline receptors in the α2-displacement assay were evaluated with epinephrine.
(§5) The variable, I, is the concentration of tracer added and the variable, Kd, is the equilibrium dissociation constant empirically determined for this receptor population.

α2 adrenergic receptors = experiment: Alpha-2 binding, 125iodoclonidine, canine brain (frontal cortex) membranes; parameters: species or system canine (mongrel dogs); conditions: canine cerebral cortex membranes
Procedure: BRAIN ALPHA-2 RECEPTORS: Membranes of mongrel dogs were harvested from the canine frontal cortex and prepared as described for lung except that the final membrane protein concentration was adjusted to 0.5 mg/ml.
as §2, §3, §4, §5

[3] = — denotes absence of significant effect

SMILES: C[C@H](N)[C@H](O)c1cccc(O)c1 (relative stereo) [R-(R*,S*) metaraminol]
- Depression Time: 30-min period following injection in which the maximal depression occurred (Swiss-Webster mice [1]): 30 to 60 min
- Stimulation Time: 30-min period following injection in which the maximal stimulant effect occurred (Swiss-Webster mice [1]): 90 to 120 min
- locomotor depressant effects, time course (result in words) (Swiss-Webster mice [1]): dose-dependent locomotor depression within 10 to 20 minutes following injection
- Depression Efficacy: ratio of the maximal depressant effect to the maximum possible effect (zero locomotor activity) (Swiss-Webster mice [1]): 0.87
- Stimulation Efficacy: ratio of the maximal stimulant effect of the test compound to the maximal effect of (+)-amphetamine (Swiss-Webster mice [1]): 0
- Depression Potency: dose resulting in ½ the maximal depressant effect (ID50) (Swiss-Webster mice [1]; [3]): 4.3 mg/kg
- effect of triprolidine pretreatment on stimulant or depressant effects (Swiss-Webster mice [2]): failed to show significant modification of stimulant or depressant effects

SMILES: CC(C)(C)NCC(O)COc1cccc2[nH]c(C#N)c(I)c12 (stereo not drawn) [ICYP, iodocyanopindolol]
- pKd (β2 adrenergic receptors; Saturation Analysis, Run 1): 11.02
- pKd (β2 adrenergic receptors; Saturation Analysis, Run 2): 11.03
- pKd (β2 adrenergic receptors; Saturation Analysis, Summary): 11.02
- pKd (β2 adrenergic receptors; Scatchard Analysis, Run 1): 11.00
- pKd (β2 adrenergic receptors; Scatchard Analysis, Run 2): 11.11
- pKd (β2 adrenergic receptors; Scatchard Analysis, Summary): 11.05

SMILES: CNC(C)(C)Cc1ccccc1 [mephentermine]
- Depression Time: 30-min period following injection in which the maximal depression occurred (Swiss-Webster mice [1]): 0 to 30 min
- Stimulation Time: 30-min period following injection in which the maximal stimulant effect occurred (Swiss-Webster mice [1]): 20 to 50 min
- locomotor stimulant effects, time course (result in words) (Swiss-Webster mice [1]): increased locomotion following from 5 to 25 mg/kg, with effects occurring within 20 minutes and lasting for up to 80 minutes
- time of peak stimulant effects following injection (Swiss-Webster mice [1]): 20 to 50 min
- Depression Efficacy: ratio of the maximal depressant effect to the maximum possible effect (zero locomotor activity) (Swiss-Webster mice [1]): 0
- Stimulation Efficacy: ratio of the maximal stimulant effect of the test compound to the maximal effect of (+)-amphetamine (Swiss-Webster mice [1]): 1.25
- Stimulation Potency: dose resulting in ½ the maximal stimulant effect (ID50) (Swiss-Webster mice [1]; [3]): 5.6 mg/kg
- effect of triprolidine pretreatment on stimulant or depressant effects (Swiss-Webster mice [2]): failed to show significant modification of stimulant or depressant effects

SMILES: Clc1cc(I)cc(Cl)c1NC1=NCCN1 [p-iodoclonidine]
- pKd (α2 adrenergic receptors; Saturation Analysis, read-out: Kd1 (high affinity)): 9.82
- pKd (α2 adrenergic receptors; Saturation Analysis, read-out: Kd2 (low affinity)): 8.52
- pKd (α2 adrenergic receptors; Scatchard Analysis, read-out: Kd1 (high affinity)): 9.82
- pKd (α2 adrenergic receptors; Scatchard Analysis, read-out: Kd2 (low affinity)): 9.06

SMILES: Cc1ccc(/C(=C\CN2CCCC2)c2ccccn2)cc1 [triprolidine, Triprolidine HCl]
- effect on horizontal distance, triprolidine alone (Swiss-Webster mice [2]; 0.25 to 25 mg/kg, 2-hour test period): failed to affect horizontal distance
- effect on locomotion, triprolidine alone (Swiss-Webster mice [2]; 50 and 100 mg/kg): Dose-dependent depression of locomotion
